Measurements published in US9265749B2, “Methods for the treatment of systemic disorders treatable with mast cell stabilizers, including mast cell related disorders” (Patara Pharma, LLC, priority 2014, dated 2016).

Assay: Single-dose, dose escalation study Part 1: pharmacokinetics of plasma/urine cromolyn sodium (DSCG)
Type: in vivo
Conditions: human, plasma, inhaled, 40 mg

AUC (40 mg dose using the 30L device (text repeat of Table 2, PA-101)): 338 ng·h/mL
AUC (40 mg dose using the 40L device (text repeat of Table 2, PA-101)): 212 ng·h/mL
Compound: O=C(O)c1cc(=O)c2c(OCC(O)COc3cccc4oc(C(=O)O)cc(=O)c34)cccc2o1 [cromolyn sodium]
